The results in this text go back to PMC12476894, “Identification of α‑Azacyclic Acetamide-Based Inhibitors of P. falciparum Na^+ Pump (PfATP4) with Fast-Killing Asexual Blood-Stage Antimalarial Activity by Phenotypic Screening” (ACS Infectious Diseases, 2025).

Molecules are shown by their SMILES. Where two headings read alike, the source gives them in different places. Bounds are passed on as bounds.

Test [1] has as its system P. falciparum NF54^luc parasites. The test can be described thus: Luciferase reporter (LR) / BRRoK assay, PfNF54^luc. The note with it: Plasmodium falciparum, NF54, Hec50, 72 h. Type of test: cell-based. (In general: A reporter such as luciferase makes a cellular process visible.)
For test [2] the test system is unchanged. The test can be described thus: Luciferase reporter (LR) / BRRoK assay, PfNF54^luc. Type of test: cell-based, Plasmodium falciparum.
The test system is the same in test [3]. The experiment in a line: 72 h SYBR Green growth inhibition, PfNF54^luc. The test is classed as cell-based. The conditions noted are these: Plasmodium falciparum.
In test [4] the test system is Dd2-B2 (PfATP4^WT). The experiment in a line: Drug susceptibility assay for cross-resistance profiling (Fidock Lab), parental line. The test is classed as cell-based, Plasmodium falciparum.
Test [5] concerns P. falciparum 3D7 parasites (Pf3D7). The experiment in a line: 72 h SYBR Green growth inhibition, ABS P. falciparum 3D7 (Phillips Lab). Type of test: cell-based, Plasmodium falciparum. The conditions noted are these: for EC50: 72 h SYBR Green assay, mean ± SEM (n); for reduction of activity relative to 2 / activity of analogs relative to parent 2 or 3 (in words): P. falciparum 3D7 and Dd2 parasites; for reduction of activity relative to 2: analogs of 2.

Test [6] relates to P. falciparum Dd2 (PfDd2) parasites. The experiment in a line: 72 h SYBR Green growth inhibition, ABS P. falciparum Dd2 (Phillips Lab). Type of test: cell-based, Plasmodium falciparum. The conditions noted are these: read-out: PfDd2 EC50.
The mark [7] stands for this setting: 72 h SYBR Green assay, mean ± SEM (n).

With `C[C@@H]1CC[C@H]2[C@@H](C)C(=O)O[C@@H]3O[C@@]4(C)CC[C@@H]1[C@]32OO4` [ART, artemisinin, reference compound], the EC50 was 0.004 µM in test [1]; 0.08 µM in test [2] (Plasmodium falciparum, NF54, Hec50, luciferase reporter, 6 h); 0.01 µM in test [3] (72 h SYBR Green assay, read-out: PfNF54^luc EC50); 0.0097 µM in test [3] (72 h SYBR Green, as listed in supplementary methods, read-out: EC50 values used for BRRoK concentration range (72h SYBR Green assay vs PfNF54luc)). In addition, the “6 h EC50 relative to 72 h SYBR Green and LR EC50” value in test [2] (higher at 6 h) is recorded as 10–20 fold.
Consider `N#Cc1cc(NC(=O)[C@H]2c3ccccc3C(=O)N(CC(F)(F)F)[C@@H]2c2cccnc2)ccc1F` [SJ733], for which the EC50 in test [4] (Plasmodium falciparum, DD2, read-out: EC50, Dd2-B2) was determined as 0.13 µM. In test [4] (parent, Table S8), the “Fold change, Dd2-B2” value is 1 fold.
`Cc1ccc(NC(=O)Cn2cccc2-c2nc(-c3ccccc3)cs2)nc1` [compound 5, N-(5-methylpyridin-2-yl)-2-[2-(4-phenyl-1,3-thiazol-2-yl)-1H-pyrrol-1-yl]acetamide]: in test [5], the EC50 was determined as 10 ± 0.03 µM and the “reduction of activity relative to 2” value is listed as 10–20 fold. Moreover, the EC50 in test [6] (setting [7]) is 9.6 ± 0.44 µM.
The matching figures for `Cc1cccc(NC(=O)Cn2cccc2-c2nc(-c3ccccc3)cs2)n1` [compound 6, N-(6-methylpyridin-2-yl)-2-[2-(4-phenyl-1,3-thiazol-2-yl)-1H-pyrrol-1-yl]acetamide]: 15 ± 0.87 µM, 10–20 fold and 12 ± 1.1 µM.
With `Cc1ccnc(NC(=O)Cn2cccc2-c2nc(-c3ccc(Cl)cc3)cs2)c1` [compound 7, 2-(2-(4-(4-chlorophenyl)-1,3-thiazol-2-yl)-1H-pyrrol-1-yl}-N-(4-methylpyridin-2-yl)acetamide], in test [5], the EC50 worked out at 15 ± 2.4 µM and the “reduction of activity relative to 2” value was 10–20 fold. In addition, the EC50 in test [6] (setting [7]) was determined as 14 ± 0.58 µM.
`Cc1cccnc1NC(=O)Cn1cccc1-c1nc(-c2ccc(Cl)cc2)cs1` [compound 8, 2-(2-(4-(4-chlorophenyl)-1,3-thiazol-2-yl)-1H-pyrrol-1-yl)-N-(3-methylpyridin-2-yl)acetamide]: the EC50 in test [5] and in test [6] (setting [7]) was greater than 30 µM throughout. The “activity of analogs relative to parent 2 or 3 (in words)” value in test [5] is “complete loss of activity”.
For the molecule `Cc1cccc(NC(=O)Cn2cccc2-c2nc(-c3ccccc3)cs2)c1` [compound 9, N-(3-methylphenyl)-2-[2-(4-phenyl-1,3-thiazol-2-yl)-1H-pyrrol-1-yl]acetamide], the “reduction of activity relative to 2” value in test [5] came to 2 fold. Also, the EC50 in test [5] (Plasmodium falciparum, 3D7) worked out at 2.8 ± 0.17 µM; in test [6] (Plasmodium falciparum, DD2, 72 h), 1.7 ± 0.038 µM.
Regarding `O=C(Cn1cccc1-c1nc(-c2ccccc2)cs1)Nc1cccc(Cl)c1` [compound 10, N-(3-chlorophenyl)-2-[2-(4-phenyl-1,3-thiazol-2-yl)-1H-pyrrol-1-yl]acetamide], the figures for the EC50 in test [5] and in test [6] (setting [7]) were 1.6 ± 0.33 µM and 0.98 ± 0.082 µM, respectively. The “activity of analogs relative to parent 2 or 3 (in words)” value in test [5] is on record as “activity was restored”.
Taken in the same sequence, the figures for `O=C(Cn1cccc1-c1nc(-c2ccc(Cl)cc2)cs1)N1CCc2ccccc21` [compound 11, 2-(2-(4-(4-chlorophenyl)-1,3-thiazol-2-yl)-1H-pyrrol-1-yl)-1-(2,3-dihydro-1H-indol-1-yl)ethan-1-one] were greater than 30 µM, greater than 30 µM and “complete loss of activity”.
In the case of `CC(=O)c1cn(C(C)C(=O)NCCn2nc(C)c(Cl)c2C)c2ccccc12` (stereo not shown) [compound 12, 2-(3-acetyl-1H-indol-1-yl)-N-[2-(4-chloro-3,5-dimethyl-1H-pyrazol-1-yl)ethyl]propenamide], in test [5], the EC50 was greater than 30 µM and the “activity of analogs relative to parent 2 or 3 (in words)” value is listed as “loss of activity”. The EC50 in test [6] (setting [7]) was greater than 30 µM.
Regarding `O=C(Cn1ccc2ccccc21)NCCn1cccn1` [compound 13, 2-(1H-indol-1-yl)-N-[2-(1H-pyrazol-1-yl)ethyl]acetamide], in test [5], the EC50 was greater than 30 µM and the “activity of analogs relative to parent 2 or 3 (in words)” value was “loss of activity”. In addition, in test [6] (setting [7]), the EC50 is greater than 30 µM.
`Cc1cc(N)n(CC(=O)NCCn2c(C)cc3ccccc32)n1` [compound 14, 2-(5-amino-3-methyl-1H-pyrazol-1-yl)-N-[2-(2-methyl-1H-indol-1-yl)ethyl]acetamide]: in test [5], the EC50 is greater than 30 µM and the “activity of analogs relative to parent 2 or 3 (in words)” value is on record as “loss of activity”. Also, the EC50 in test [6] (setting [7]) was greater than 30 µM.
